Reference: patent publication US9943525B2, “Composition for reducing cell senescence comprising Rho-kinase inhibitor and use thereof” (Samsung Electronics Co., Ltd., priority 2014, dated 2018)

How the values were obtained:
[1] = tested on: senescent fibroblasts (after 37 cell passages); assay: cell proliferation and colony formation, crystal violet stain; format: cell-based, human; details: 4 weeks; for cell proliferation and cell colony formation: vs DMSO
Procedure: Fibroblast cell lines were cultured in Dulbecco's Modified Eagle's Media (DMEM) supplemented with 10% fetal bovine serum (FBS) and 100 unit/ml of penicillin, and 100 μg/ml of streptomycin (two antibiotics are purchased from Gibro-BRL and Grand Island, N.Y.) in a 5% CO2 incubator at 37° C. The fibroblast cell lines (M11 strain) were obtained from a foreskin of a child. Subculture was initiated when the cells were approximately 85% confluent in plates. Early subcultures were performed at a split ratio of 1:4, and later subcultures were performed at a split ratio of 1:2. When cell doubling time was 14 days, the cells were regarded as senescent fibroblasts (passages 35 to 37).
In order to determine optimum concentrations of Rho-kinase inhibitors Y-27632 (Selleckchem, S1049, 50 mg 2HCl salt form), FASUDIL (Selleckchem, S1573, 500 mg HCl salt form), and SR3677 (Synkinase, SYN1083, 10 mg), the senescent fibroblasts (after 37 cell passages) were seeded on each well of a 6-well plate in a concentration of 2,000 cells/well, and the wells were treated with 1 μM, 5 μM, 10 μM, 20 μM, and 30 μM of Y-27632, 1 μM, 5 μM, 10 μM, 20 μM, and 30 μM of FASUDIL, and 0.01 μM, 0.05 μM, 0.1 μM, 0.5 μM, and 1 μM of SR3677. In addition, a negative control group was prepared in the same manner, except that dimethyl sulfoxide (DMSO) was used. The culture media supplemented with the Rho-kinase inhibitors were changed at every 4 days, and colonies were stained with a 0.05% crystal violet stain after 4 weeks.

[2] = tested on: senescent myoblasts (11 cell passages); assay: lipofuscin autofluorescence by flow cytometry; format: cell-based, Human; details: 4 weeks, vs control, p<0.05, FIG. 14
Procedure: (§1) Myoblast cell lines (Human Skeletal Muscle Myoblasts, Lonza CC-2580 LOT:0000387550) were cultured in SkBM™-2 Basal Media (Lonza CC-3246) including an SkGM™-2 SingleQuots™ Kit (Lonza CC-3244) on plates coated with Collagen Type I (Greiner Bio One, 658950) in a 5% CO2 incubator at 37° C. Subculture was initiated when the cells were approximately 85% confluent in plates. Early subcultures were performed at a split ratio of 1:4, and later subcultures were performed at a split ratio of 1:2. When cell doubling time was 14 days, the cells were regarded as senescent myoblasts (cell passages 10 to 12).
In addition, amounts of lipofuscin accumulated in the cultured cells were measured. Senescent myoblasts (11 cell passages) were cultured in the presence of 5 μM of Y-27632, 5 μM of FASUDIL, and 0.5 μM of SR3677 for 4 weeks in a 5% CO2 incubator at 37° C. The culture media were changed at every 4 days with new culture media supplemented with 5 μM of Y-27632, 5 μM of FASUDIL, and 0.5 μM of SR3677. Since lipofuscin has autofluorescence characteristics, light having a wavelength of 488 nm was irradiated to the cells by using a FACSCaliber (Beckton Dickinson) and light emission at 520 nm was measured. The results were analyzed using Cell Quest 3.2 software (Beckton Dickinson). FIG. 14 is a graph displaying amounts of lipofuscin in myoblasts (11 cell passages) cultured in the presence of Rho-kinase inhibitors Y-27632 (5 μM), Fasudil (5 μM), and SR3677 (0.5 μM). […] In FIG. 14, * indicates statistically significant (p<0.05).

[3] = tested on: senescent myoblasts (11 cell passages); assay: mitochondrial ROS (MitoSOX) by flow cytometry; format: cell-based, Human; details: vs control, p<0.05, FIG. 15
Procedure: as §1
Senescent cells were seeded on each well of a 6-well plate coated with Collagen Type I (Greiner Bio One, 657950) in a concentration of 2,000 cells/well. Senescent myoblasts (passage 11) were cultured in the presence of 5 μM of Y-27632, 5 μM of FASUDIL, and 0.5 μM of SR3677 for 4 weeks in a 5% CO2 incubator at 37° C. The culture media were changed at every 4 days with new culture media supplemented with 5 μM of Y-27632, 5 μM of FASUDIL, and 0.5 μM of SR3677. A negative control group was prepared in the same manner, except that 0.05 (v/v) % of DMSO was used.
ROS were measured using a 0.2 μM MitoSOX (Invitrogen, M3608) according to manufacturer's manuals. Light having a wavelength of 520 nm was irradiated to the cells using a FACSCaliber (Beckton Dickinson), and light emission was measured at 580 nm. The results were analyzed using Cell Quest 3.2 software (Beckton Dickinson).

[4] = tested on: senescent progeric fibroblasts (cell passage 17); assay: DNA comet assay; format: cell-based, human; details: 4 weeks, vs DMSO, p<0.05, FIG. 21
Procedure: The degrees of restoration of DNA damage in senescent progeric fibroblasts by the Rho-kinase inhibitors were identified by a DNA comet assay. This method is performed by detecting DNA fractions cleaved by ultraviolet (UV) irradiation. This method is based on gel electrophoresis. During gel electrophoresis, damaged DNA migrates farther than normal DNA forming a tail like a comet-tail. Then, a slide was stained with SYBR Green, and the length of a tail of a DNA fraction was measured using a fluorescence microscope to identify the degree of DNA damage.
FIG. 21 is a graph displaying degrees of DNA damage in progeric fibroblasts (cell passage 17) cultured in the presence of Rho-kinase inhibitors Y-27632 (5 μM), Fasudil (5 μM), and SR3677 (0.5 μM) measured by a DNA comet assay indicating the degree of DNA damage. In FIG. 21, senescent progeric cells (cell passage 17) were cultured in culture media supplemented with 5 μM of Y-27632, 5 μM of FASUDIL, and 0.5 μM of SR3677 for 4 weeks in a 5% CO2 incubator at 37° C. The culture media were changed at every 4 days with new culture media supplemented with 5 μM of Y-27632, 5 μM of FASUDIL, and 0.5 μM of SR3677. Cells having a cell doubling time of 6 to 7 days were used as young cells. A negative control group was prepared in the same manner, except that DMSO was used. […] Thus, it was confirmed that the degree of DNA damage increases in senescent cells. […] In FIG. 21, * indicates statistically significant (p<0.05).

Row | Compound | cell proliferation and cell colony formation ([1]; 5 μM, FIG. 1 B) | toxic effects on cell proliferation and cell colony formation ([1]; 10 μM, 20 μM, and 30 μM, FIG. 1 B) | amounts of lipofuscin ([2]; 5 μM) | ROS ([3]; 5 μM) | DNA damage (Tail Moment) ([4]; 5 μM) | cell proliferation and cell colony formation ([1]; 0.5 μM, FIG. 1 C) | toxic effects on cell proliferation and cell colony formation ([1]; 1 μM, FIG. 1 C) | amounts of lipofuscin ([2]; 0.5 μM) | ROS ([3]; 0.5 μM) | DNA damage (Tail Moment) ([4]; 0.5 μM) | cell proliferation and cell colony formation ([1]; 5 μM, 10 μM, and 20 μM, FIG. 1 A) | toxic effects on cell proliferation and cell colony formation ([1]; 30 μM, FIG. 1 A)
1 | O=S(=O)(c1cccc2cnccc12)N1CCCNCC1 [FASUDIL, 5-(1,4-diazepane-1-sulfonyl)isoquinoline] | greatest therapeutic effects | reduces cell proliferation and cell colony formation due to toxic effects | significantly reduced | significantly reduced | considerably reduced |  |  |  |  |  |  | 
2 | CN(C)CCOc1cc(-c2cn[nH]c2)ccc1NC(=O)C1COc2ccccc2O1 (stereo not drawn) [SR3677] |  |  |  |  |  | greatest therapeutic effects | reduces cell proliferation and cell colony formation due to toxic effects | significantly reduced | significantly reduced | considerably reduced |  | 
3 | C[C@@H](N)[C@H]1CC[C@H](C(=O)Nc2ccncc2)CC1 [Y-27632, (1R,4R)-4-((R)-1-aminoethyl)-N-(pyridin-4-yl)cyclohexanecarboxamide] |  |  | significantly reduced | significantly reduced | considerably reduced |  |  |  |  |  | greatest therapeutic effects | reduces cell proliferation and cell colony formation due to toxic effects
